18 compounds from patent publication US8680282B2, “Cyclic inhibitors of carnitine palmitoyltransferase and treating cancer” (University Health Network, priority 2007, dated 2014) can be followed below.

Molecules are shown by their SMILES.

One experiment deals with T1, human CPT1A (Homo sapiens, UniProt P50416).
T1 construct: made in house; host or cells: Saccharomyces cerevisiae (pESC-trp) or cultured mammalian cells (pCDNA3.1); mitochondrial extract
T1 sequence (P50416 1-773): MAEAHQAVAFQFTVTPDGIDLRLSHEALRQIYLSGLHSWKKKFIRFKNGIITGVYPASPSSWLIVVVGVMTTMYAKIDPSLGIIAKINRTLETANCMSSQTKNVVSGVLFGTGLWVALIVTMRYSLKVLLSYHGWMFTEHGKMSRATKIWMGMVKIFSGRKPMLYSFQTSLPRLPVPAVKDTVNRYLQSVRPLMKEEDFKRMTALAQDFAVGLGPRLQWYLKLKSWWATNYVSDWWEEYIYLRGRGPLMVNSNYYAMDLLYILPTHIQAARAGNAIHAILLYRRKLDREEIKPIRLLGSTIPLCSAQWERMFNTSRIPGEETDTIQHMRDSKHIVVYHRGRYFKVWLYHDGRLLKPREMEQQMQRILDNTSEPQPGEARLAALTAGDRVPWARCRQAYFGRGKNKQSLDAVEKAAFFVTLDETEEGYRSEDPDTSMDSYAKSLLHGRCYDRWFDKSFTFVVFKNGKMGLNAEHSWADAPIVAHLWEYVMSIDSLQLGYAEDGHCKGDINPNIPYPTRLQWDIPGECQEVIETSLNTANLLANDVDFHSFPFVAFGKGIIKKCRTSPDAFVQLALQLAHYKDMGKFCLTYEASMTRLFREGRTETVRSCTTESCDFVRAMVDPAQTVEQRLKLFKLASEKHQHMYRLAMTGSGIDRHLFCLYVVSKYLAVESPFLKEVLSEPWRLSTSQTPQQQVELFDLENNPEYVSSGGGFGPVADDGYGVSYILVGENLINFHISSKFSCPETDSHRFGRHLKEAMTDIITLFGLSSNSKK
Briefly: Human CPT1A LC/MS assay. The experiment is classed as biochemical. The conditions noted are these: human CPT1A LC/MS assay, dose response format. The source says:
Nucleotide sequences encoding human CPT1 enzymes were individually cloned into the yeast expression vector pESC-trp at the Cla1 (5′ terminus) and Pac1 (3′ terminus) restriction sites by PCR amplification of the open reading frame using oligonucleotide primers designed to encode the wild-type CPT1 protein sequence. Standard molecular biology techniques were used to transform and express the CPT1 proteins in the yeast Saccharomyces cerevisiae. The yeast cells were lysed by enzymatic degradation of the cell wall by Zymolase, and the mitochondria were isolated by standard biochemical techniques. The integrity of the isolated mitochondria was monitored by determining the activity of succinate dehydrogenase in the mitochondrial preparations. The mitochondrial extracts were stored at −80° C. in buffer containing 10 mM HEPES pH 7.4 and 250 mM sucrose.
Human CPT1 (A, B, C) genes were additionally cloned into the pCDNA3.1 vector individually for expression in cultured mammalian cells. Cells expressing the exogenous CPT1A were identified and grown under standard conditions. Mammalian cells were harvested, and mitochondrial extracts prepared using standard biochemical methods. The mitochondrial extracts were stored at −80° C. in buffer containing 10 mM HEPES pH 7.4 and 250 mM sucrose.
Assays were performed in 96-well plate format. Each 100 μL reaction contained 40 mM KCl, 50 mM TrisHCl pH 7.5, and 250 mM mannitol (Assay Buffer), and 1.6 μg protein of an extract, 20 μM palmitoyl-CoA, 50 μM L-carnitine, and 10 ug/mL BSA. Reactions were incubated at room temperature and stopped after 10 minutes by extraction with 200 μL of water saturated n-butanol containing myristoyl carnitine (500 nM) as an internal standard. The samples were thoroughly mixed, and the phases separated by centrifugation. Samples were prepared for analysis with a 10 fold dilution of the n-butanol phase containing the reaction product palmitoyl carnitine into a 50:50 (acetonitrile:water) solvent for analysis. 5 μL of prepared sample was separated on a Phenomenex Jupiter 5μ C4 reverse-phase column using an Agilent 1100 HPLC with a gradient from 50% acetonitrile (0.5% acetic acid) to 100% acetonitrile and quantified by detection with a Bruker Esquire 3000plus mass spectrometer. The abundance of the palmitoyl carnitine product was determined relative to the internal standard and the actual quantity of palmitoyl carnitine can be determined from a standard curve prepared using the n-butanol solution containing the internal standard.
Compounds were evaluated in two formats, a screening format, and a dose response format. The screening format was performed by adding 25 μL compound in 20% DMSO and Assay Buffer to 25 μL of extract containing […] and Assay Buffer, followed by a 10 minute incubation at room temperature. 50 μL of 40 μM palmitoyl-CoA in Assay Buffer was added to the reaction mixture, mixed and incubated for 10 minutes at room temperature. A negative control for activity was also performed where the carnitine was omitted from the reaction. A positive control for activity was also performed by omitting compound from the solution containing 20% DMSO and Assay Buffer. The reaction mixture was extracted and analyzed as described above. The inhibition by compound was determined by comparing the control relative activity to the relative activity observed in wells containing the compound. Relative activity was determined by subtracting the relative intensity (area palmitoyl carnitine/area myristoyl carnitine) observed in the negative control from the relative intensity observed in the experimental well, and dividing by the relative activity observed in the positive control.
[formula] Compound characterization by dose response format was performed using the above described assay conditions and a 16 point compound titration in 2 fold compound dilution steps. The DMSO concentration was kept constant at 20% (v/v) for all compound concentrations.

The subject of another experiment is A549. Briefly: Cancer cell growth inhibition, SRB assay. Conditions: SRB at Day 6; for GI50: Homo sapiens, 144 h, A549 (Lung), triplicate; for Percentage of Growth Inhibition: A549, at 10 μM, NE = no activity at 10 micromolar. Further details: Percentage of Growth Inhibition: scale not given here. The experiment is classed as cell-based, human.
A further experiment relates to COLO-205. Briefly: Cancer cell growth inhibition, SRB assay. Format: cell-based, human. Conditions: SRB at Day 6; for GI50: Homo sapiens, 144 h, COLO-205 (Colon), triplicate; for Percentage of Growth Inhibition: COLO-205, at 10 μM, NE = no activity at 10 micromolar.

`CCCCCc1ccc(S(=O)(=O)NC2(CC(=O)O)C[N+](C)(C)C2)cc1` [Example S29, 3-(carboxymethyl)-1,1-dimethyl-3-(4-pentylphenylsulfonamido)-azetidinium 2,2,2-trifluoroacetate] registered an IC50 at human CPT1A of 10 to 100 µM. The concentration for 50% growth inhibition (GI50) in the experiment on A549 is more than 50 µM; in the experiment on COLO-205, 28 µM.
Turning to `CCCCCc1ccc(S(=O)(=O)NC2(CC(=O)O)CN(C)C2)cc1` [Example S27, 3-(carboxymethyl)-1-methyl-3-(4-pentylphenylsulfonamido)azetidinium 2,2,2-trifluoroacetate], the IC50 on human CPT1A was 10 to 100 µM. For the same compound, in the experiment with A549, the “Percentage of Growth Inhibition” value is 0.06854%.
At human CPT1A, `CCCCCCCCc1ccc(NC(=O)NC2(CC(=O)O)CC[N+](C)(C)CC2)cc1` [Example S2, 4-(Carboxymethyl)-1,1-dimethyl-4-(3-(4-octylphenyl)ureido)piperidinium 2,2,2-trifluoroacetate] gave a 50% inhibitory concentration (IC50) of 10 to 100 µM. The values for the concentration for 50% growth inhibition (GI50) with A549 and in the experiment with COLO-205 were 99 µM and 1.3 µM, respectively.
The like results for `CCCCCCCCc1ccc(NS(=O)(=O)NC2(CC(=O)O)CCN(C)CC2)cc1` [Example S7, 4-(carboxymethyl)-1-methyl-4-(N-(4-octylphenyl)sulfamoylamino)-piperidinium 2,2,2-trifluoroacetate] were, in that order, 10 to 100 µM, 52 µM and 74 µM.
On human CPT1A, `CCCCCCCCc1ccc(NC(=O)NC2(CC(=O)O)CCC[NH+](C)C2)cc1` (stereo not drawn) [Example S9, 3-(Carboxymethyl)-1-methyl-3-(3-(4-octylphenyl)ureido)piperidinium 2,2,2-trifluoroacetate] yielded an IC50 of 10 to 100 µM. Also, the “Percentage of Growth Inhibition” value in the experiment on A549 is reported as 0.451%; in the experiment with COLO-205 it was 0.2852%.
At human CPT1A, `CCCCCCCCc1ccc(NC(=O)NC2(CC(=O)O)CNC2)cc1` [Example S23, 3-(carboxymethyl)-3-(3-(4-octylphenyl)ureido)azetidinium 2,2,2-trifluoroacetate] returned an IC50 of 1000 to 2500 µM. Further, the results for the GI50 in the experiment with A549 and in the experiment with COLO-205 were more than 50 µM and 35 µM, respectively.
Compound `CCCCCCCCc1ccc(NS(=O)(=O)NC2(CC(=O)O)CCC[N+](C)(C)C2)cc1` (stereo not drawn) [Example S16, 3-(carboxymethyl)-1,1-dimethyl-3-(N-(4-octylphenyl)sulfamoylamino)-piperidinium 2,2,2-trifluoroacetate] had an IC50 against human CPT1A of 1 to 10 µM. Moreover, the results for the 50% growth inhibitory concentration (GI50) with A549 and in the experiment on COLO-205 were 6.2 µM and 10 µM, respectively.
Regarding `C[N+]1(C)CCC(CC(=O)O)(NC(=O)c2ccc(CCc3ccccc3)o2)CC1` [Example S5, 4-(Carboxymethyl)-1,1-dimethyl-4-(5-phenethylfuran-2-carboxamido)-piperidinium 2,2,2-trifluoroacetate], the IC50 at human CPT1A was 1 to 10 µM. In addition, the “Percentage of Growth Inhibition” value in the experiment with COLO-205 turned out to be 0.1219%.
The like results for `CCCCCc1ccc(S(=O)(=O)NC2(CC(=O)O)CCN(C)CC2)cc1` [Example S3, 4-(carboxymethyl)-1-methyl-4-(4-pentylphenylsulfonamido)piperidinium 2,2,2-trifluoroacetate] were, in that order, 10 to 100 µM and 0.03424%.
On human CPT1A, `CCCCCc1ccc(S(=O)(=O)NC2(CC(=O)O)CC[N+](C)(C)CC2)cc1` [Example S4, 4-(Carboxymethyl)-1,1-dimethyl-4-(4-pentylphenylsulfonamido)piperidinium 2,2,2-trifluoroacetate] came in with an IC50 not above 1 µM. In the experiment with COLO-205, the GI50 is more than 50 µM.
In turn, `CCCCCCCCc1ccc(NC(=O)NC2(CC(=O)O)C[N+](C)(C)C2)cc1` [Example S24, 3-(Carboxymethyl)-1,1-dimethyl-3-(3-(4-octylphenyl)ureido)azetidinium 2,2,2-trifluoroacetate] gave an IC50 against human CPT1A of 10 to 100 µM. For the same compound, the GI50 worked out at 36 µM in the experiment on A549 and 28 µM in the experiment on COLO-205.
The like results for `CCCCCCCCc1ccc(NC(=O)NC2(CC(=O)O)CC[N+](C)(C)C2)cc1` (stereo not drawn) [Example S18, 3-(carboxymethyl)-1,1-dimethyl-3-(3-(4-octylphenyl)ureido)-pyrrolidinium 2,2,2-trifluoroacetate] were, in that order, 10 to 100 µM, 38 µM and 1.9 µM.
For the compound `CCCCCc1ccc(S(=O)(=O)NC2(CC(=O)O)CC[N+](C)(C)C2)cc1` (stereo not drawn) [Example S20, 3-(carboxymethyl)-1,1-dimethyl-3-(4-pentylphenylsulfonamido)-pyrrolidinium 2,2,2-trifluoroacetate], the IC50 against human CPT1A was in the range of 1 to 10 µM. Also, the “Percentage of Growth Inhibition” value in the experiment on COLO-205 came out at 0.3647%.
In turn, `CCCCCCCCc1ccc(NC(=O)NC2(CC(=O)O)CCC[N+](C)(C)C2)cc1` (stereo not drawn) [Example S10, 3-(carboxymethyl)-1,1-dimethyl-3-(3-(4-octylphenyl)ureido)-piperidinium 2,2,2-trifluoroacetate] came in with a 50% inhibitory concentration (IC50) on human CPT1A of 10 to 100 µM. Further, the results for the concentration for 50% growth inhibition (GI50) with A549 and in the experiment on COLO-205 were 73 µM and 1 µM, respectively.
Consider `C[N+]1(C)CCC(CC(=O)O)(NC(=O)c2ccc(C#Cc3ccccc3)o2)CC1` [Example S6, 4-(Carboxymethyl)-1,1-dimethyl-4-(5-(phenylethynyl)furan-2-carboxamido)-piperidinium 2,2,2-trifluoroacetate], for which the IC50 against human CPT1A lay in the range of 100 to 1000 µM. The “Percentage of Growth Inhibition” value in the experiment with COLO-205 came to 0.1543%.
`CCCCCCCCCCc1ccc(C(=O)NC2(CC(=O)O)CC[N+](C)(C)C2)cc1` (stereo not drawn) [Example S22, 3-(Carboxymethyl)-3-(4-decylbenzamido)-1,1-dimethylpyrrolidinium 2,2,2-trifluoroacetate] registered a concentration for half-maximal inhibition (IC50) on human CPT1A of 1 to 10 µM. Further, in the experiment on COLO-205, the “Percentage of Growth Inhibition” value amounted to 0.08112%.
The like results for `O=C(O)CC1(NC(=O)c2ccc(C#Cc3ccccc3)o2)CNC1` [Example S26, 3-(carboxymethyl)-3-(5-(phenylethynyl)furan-2-carboxamido)-azetidinium 2,2,2-trifluoroacetate] were, in that order, 100 to 1000 µM and 0.1892%.
The like results for `CCCCCCCCCCc1ccc(C(=O)NC2(CC(=O)O)CCN(C)C2)cc1` (stereo not drawn) [Example S21, 3-(carboxymethyl)-3-(4-decylbenzamido)-1-methylpyrrolidinium 2,2,2-trifluoroacetate] were, in that order, 10 to 100 µM and 0.02151%.
